Data from US8476197B2, “Aminopropenoates as fungicides” (priority 2009, dated 2013).
Where two headings read alike, the source gives them in different places. Marks after values point to notes of the source that are not given here.

SMILES	Log P (pH 2.7)	Log P (pH 7.5)	Log P (pH 2.3)
CCOC(=O)C(C#N)=C(NC(C)C1CCCCC1)c1ccsc1Br (centres unmarked) [Compound 877]	5.03^[a]	–	–
CCOC(=O)C(C#N)=C(NC(C)C1CC1)c1cccnc1Cl (centres unmarked) [Compound 878]	–	2.93	–
CCOC(=O)C(C#N)=C(NC(C)C1CC1)c1cc(C)oc1C (centres unmarked) [Compound 879]	3.63^[a]	–	–
COC(=O)C(C#N)=C(NC(C)C1CC1)c1cccnc1Cl (centres unmarked) [Compound 880]	2.58^[a]	–	–
CCOC(=O)C(C#N)=C(NC(C)C1CC1)c1ccc(C)nc1Cl (centres unmarked) [Compound 881]	–	3.32	–
CCOC(=O)C(C#N)=C(NC(C)C1CC1)c1cn(C)nc1C(F)F (centres unmarked) [Compound 882]	2.88^[a]	–	–
CCOC(=O)C(C#N)=C(NC(C)C1CC1)c1sccc1C(F)(F)F (centres unmarked) [Compound 883]	3.83^[a]	–	–
COC(=O)C(C#N)=C(NC(C)C1CC1)c1sc(C)nc1C(F)(F)F (centres unmarked) [Compound 884]	3.27^[a]	–	–
CCOC(=O)C(C#N)=C(NC(C)C1CC1)c1sccc1Br (centres unmarked) [Compound 885]	3.76^[a]	–	–
CCOC(=O)C(C#N)=C(NC(C)C1CC1)c1sc(C)nc1C(F)(F)F (centres unmarked) [Compound 886]	3.61^[a]	–	–
CCOC(=O)C(C#N)=C(NC(C)C1CC1)c1cc(Cl)sc1Cl (centres unmarked) [Compound 887]	4.36^[a]	–	–
CCOC(=O)C(C#N)=C(NC(C)C1CC1)c1nc(Cl)ccc1Cl (centres unmarked) [Compound 888]	3.73^[a]	–	–
CCOC(=O)C(C#N)=C(NC(C)C1CC1)c1ncc(Cl)cc1Cl (centres unmarked) [Compound 889]	3.8^[a]	–	–
CCOC(=O)C(C#N)=C(NC(C)C1CC1)c1cnc(Cl)cc1Cl (centres unmarked) [Compound 890]	3.64^[a]	–	–
CCOC(=O)C(C#N)=C(NC(C)C1CC1)c1cccnc1C(F)(F)F (centres unmarked) [Compound 892]	3.35^[a]	–	–
CCOC(=O)C(C#N)=C(NC(C)C1CC1)c1cccnc1Cl (centres unmarked) [Compound 909]	3.1^[a]	–	–
CCOC(=O)C(C#N)=C(NC(C)C1CC1)c1cccnc1Cl (centres unmarked) [Compound 910]	3.1^[a]	–	–
CCOC(=O)C(C#N)=C(NC(C)C(C)(C)C)c1cccnc1Cl (centres unmarked) [Compound 924]	3.6^[a]	–	–
COC(=O)C(C#N)=C(NC(C)C(C)C)c1cccnc1Cl (centres unmarked) [Compound 931]	2.76	2.83	3
COC(=O)C(C#N)=C(NC(C)C(C)C)c1cccnc1Cl (centres unmarked) [Compound 932]	–	2.85	–
CCOC(=O)C(C#N)=C(NC(C)C(C)C)c1cn(C)nc1C(F)F (centres unmarked) [Compound 933]	3.13^[a]	–	–
CCOC(=O)C(C#N)=C(NC(C)C(C)C)c1cccnc1Cl (centres unmarked) [Compound 934]	–	3.21	–
COC(=O)C(C#N)=C(NC(C)C(C)C)c1cn(C)nc1C(F)F (centres unmarked) [Compound 938]	2.8^[a]	–	–
CCOC(=O)C(C#N)=C(NC(C)C(C)C)c1cn(C)nc1C(F)(F)F (centres unmarked) [Compound 939]	3.64^[a]	–	–
CCOC(=O)C(C#N)=C(NC(C)C(C)C)c1conc1C (centres unmarked) [Compound 940]	3.15^[a]	–	–

SMILES	Log P (pH 2.7)	Log P (pH 7.5)	Log P (pH 2.3)
COC(=O)C(C#N)=C(NC(C)C(C)C)c1cccnc1Br (centres unmarked) [Compound 942]	–	2.88	3.02
CC(C)OC(=O)C(C#N)=C(NC(C)C(C)C)c1cccnc1Cl (centres unmarked) [Compound 946]	–	3.69	–
CCOC(=O)C(C#N)=C(NC(C)C(C)C)c1ccc(C)nc1Cl (centres unmarked) [Compound 950]	–	3.63	–
CCOC(=O)C(C#N)=C(NC(C)C(C)C)c1cccnc1Cl (centres unmarked) [Compound 952]	3.37	3.33	–
CCOC(=O)C(C#N)=C(NC(C)C(C)C)c1cccnc1C (centres unmarked) [Compound 953]	–	2.89	2.63
C=CCOC(=O)C(C#N)=C(NC(C)C(C)C)c1cccnc1Cl (centres unmarked) [Compound 955]	3.55	3.49	–
CCNC(=O)C(C#N)=C(NC(C)C(C)C)c1cccnc1Cl (centres unmarked) [Compound 958]	2.94	–	–
CONC(=O)C(C#N)=C(NC(C)C(C)C)c1cccnc1Cl (centres unmarked) [Compound 960]	–	2.26	2.31
CCOC(=O)C(C#N)=C(NC(C)C(C)C)c1cccnc1OC (centres unmarked) [Compound 961]	–	3.52^[c]; 3.52^[b]	3.52^[c]; 3.52^[b]
CCOC(=O)C(C#N)=C(NC(C)C(C)C)c1cccnc1C(F)(F)F (centres unmarked) [Compound 970]	3.62^[a]	–	–
CCOC(=O)C(C#N)=C(NC(C)C(C)C)c1cccnc1-c1ccc(Cl)cc1 (centres unmarked) [Compound 974]	–	4.08	4.09
CCOC(=O)C(C#N)=C(NC(C)C(C)C)c1cccnc1-c1cc(Cl)cc(Cl)c1 (centres unmarked) [Compound 975]	–	4.67	4.68
C=Cc1ncccc1C(NC(C)C(C)C)=C(C#N)C(=O)OCC (centres unmarked) [Compound 976]	–	3.26	3.24
CCOC(=O)C(C#N)=C(NC(C)C(C)C)c1ccncc1Cl (centres unmarked) [Compound 978]	3.29^[a]	–	–
CCOC(=O)C(C#N)=C(NC(C)C(C)C)c1cccnc1C(C)=O (centres unmarked) [Compound 980]	–	3.08	3.11
CCOC(=O)C(C#N)=C(NC(C)C(C)C)c1cccnc1C(F)F (centres unmarked) [Compound 981]	3.15^[a]	–	–
CCOC(=O)C(C#N)=C(NC(C)C(C)C)c1cccnc1Cl (centres unmarked) [Compound 984]	3.33	3.22	3.22
CCOC(=O)C(C#N)=C(NC(C)C(C)C)c1cccnc1C(C)=NO (centres unmarked) [Compound 985]	–	2.67	2.69
CCOC(=O)C(C#N)=C(NC(C)C(C)C)c1ccc(Cl)nc1Cl (centres unmarked) [Compound 986]	–	3.85^[c]; 3.85^[b]	3.85^[c]; 3.85^[b]
CCCNC(=O)C(C#N)=C(NC(C)C(C)C)c1cccnc1Cl (centres unmarked) [Compound 988]	–	3.22	3.24
CNC(=O)C(C#N)=C(NC(C)C(C)C)c1cccnc1Cl (centres unmarked) [Compound 989]	–	2.41^[c]; 2.41^[b]	2.41^[c]; 2.41^[b]
CC(C)C(C)NC(=C(C#N)C(=O)On1nnc2ccccc21)c1cccnc1Cl (centres unmarked) [Compound 990]	–	3.21	3.22
C#CCNC(=O)C(C#N)=C(NC(C)C(C)C)c1cccnc1Cl (centres unmarked) [Compound 991]	–	2.68	2.69
CC(C)C(C)NC(=C(C#N)C(=O)NCC(F)(F)F)c1cccnc1Cl (centres unmarked) [Compound 992]	–	3.16	3.17

Now from value to molecule, other results behind:

Log P (pH 2.7)	SMILES	Log P (pH 7.5)	Log P (pH 2.3)
2.8^[a]	CCOC(=O)C(C#N)=C(NC(C)C1CC1)c1cn(C)nc1OC (centres unmarked) [Compound 891]	–	–
3.87^[a]	CCOC(=O)C(C#N)=C(NC(C)C1CC1)c1sc(Cl)nc1Cl (centres unmarked) [Compound 893]	–	–
4.26^[a]	CCOC(=O)C(C#N)=C(NC(C)CCCC(C)C)c1cn(C)nc1C(F)F (centres unmarked) [Compound 925]	–	–
5.39^[a]	CCOC(=O)C(C#N)=C(NC(C)CCCC(C)C)c1sccc1C(F)(F)F (centres unmarked) [Compound 926]	–	–
4.78^[a]	COC(=O)C(C#N)=C(NC(C)CCCC(C)C)c1sc(C)nc1C(F)(F)F (centres unmarked) [Compound 927]	–	–
5.36^[a]	CCOC(=O)C(C#N)=C(NC(C)CCCC(C)C)c1sccc1Br (centres unmarked) [Compound 928]	–	–
5.14^[a]	CCOC(=O)C(C#N)=C(NC(C)CCCC(C)C)c1sc(C)nc1C(F)(F)F (centres unmarked) [Compound 929]	–	–
5.32^[a]	CCOC(=O)C(C#N)=C(NC(C)CCCC(C)C)c1ccsc1Br (centres unmarked) [Compound 930]	–	–
4.29^[a]	CCOC(=O)C(C#N)=C(NC(C)C(C)C)c1ncc(C(F)(F)F)cc1Cl (centres unmarked) [Compound 935]	–	–
3.19^[a]	CCOC(=O)C(C#N)=C(NC(C)C(C)C)c1c(C)nn(C)c1F (centres unmarked) [Compound 936]	–	–
4.39^[a]	CCOC(=O)C(C#N)=C(NC(C)C(C)C)c1nsc(Cl)c1Cl (centres unmarked) [Compound 937]	–	–
4.12^[a]	CCOC(=O)C(C#N)=C(NC(C)C(C)C)c1sccc1Br (centres unmarked) [Compound 941]	–	–
3.67^[a]	CCOC(=O)C(C#N)=C(NC(C)C(C)C)c1c(C)nn(C)c1Cl (centres unmarked) [Compound 943]	–	–
4.21^[a]	CCOC(=O)C(C#N)=C(NC(C)C(C)C)c1sccc1C(F)(F)F (centres unmarked) [Compound 944]	–	–
4.1^[a]	CCOC(=O)C(C#N)=C(NC(C)C(C)C)c1ccsc1Br (centres unmarked) [Compound 945]	–	–
3.99^[a]	CCOC(=O)C(C#N)=C(NC(C)C(C)C)c1cc(C)oc1C (centres unmarked) [Compound 947]	–	–
3.63^[a]	COC(=O)C(C#N)=C(NC(C)C(C)C)c1sc(C)nc1C(F)(F)F (centres unmarked) [Compound 948]	–	–

Log P (pH 2.7)	SMILES	Log P (pH 7.5)	Log P (pH 2.3)
3.95^[a]	CCOC(=O)C(C#N)=C(NC(C)C(C)C)c1sc(C)nc1C(F)(F)F (centres unmarked) [Compound 949]	–	–
4.08^[a]	CCOC(=O)C(C#N)=C(NC(C)C(C)C)c1sccc1Cl (centres unmarked) [Compound 951]	–	–
3.63^[a]	CCOC(=O)C(C#N)=C(NC(C)C(C)C)c1c(C(F)F)nn(C)c1Cl (centres unmarked) [Compound 954]	–	–
2.2^[a]	CC(C)C(C)NC(=C(C#N)C(=O)O)c1cccnc1Cl (centres unmarked) [Compound 956]	–	–
4.34^[a]	C=CCOC(=O)C(C#N)=C(NC(C)C(C)C)c1sccc1Br (centres unmarked) [Compound 962]	–	–
2.74^[a]	CC(C)C(C)NC(=C(C#N)C(=O)O)c1sccc1Br (centres unmarked) [Compound 964]	–	–
4.72^[a]	CCOC(=O)C(C#N)=C(NC(C)C(C)C)c1cc(Cl)sc1Cl (centres unmarked) [Compound 965]	–	–
4.06^[a]	CCOC(=O)C(C#N)=C(NC(C)C(C)C)c1nc(Cl)ccc1Cl (centres unmarked) [Compound 966]	–	–
4.19^[a]	CCOC(=O)C(C#N)=C(NC(C)C(C)C)c1ncc(Cl)cc1Cl (centres unmarked) [Compound 967]	–	–
3.96^[a]	CCOC(=O)C(C#N)=C(NC(C)C(C)C)c1cnc(Cl)cc1Cl (centres unmarked) [Compound 968]	–	–
3.06^[a]	CCOC(=O)C(C#N)=C(NC(C)C(C)C)c1cn(C)nc1OC (centres unmarked) [Compound 969]	–	–
3.06^[a]	C=Cc1nn(C)cc1C(NC(C)C(C)C)=C(C#N)C(=O)OCC (centres unmarked) [Compound 971]	–	–
4.26^[a]	CCOC(=O)C(C#N)=C(NC(C)C(C)C)c1nc(SC)ncc1Br (centres unmarked) [Compound 972]	–	–
4.23^[a]	CCOC(=O)C(C#N)=C(NC(C)C(C)C)c1sc(Cl)nc1Cl (centres unmarked) [Compound 973]	–	–
3.96^[a]	CCOC(=O)C(C#N)=C(NC(C)C(C)C)c1cc(Cl)ncc1Cl (centres unmarked) [Compound 977]	–	–
3.5^[a]	CCOC(=O)C(C#N)=C(NC(C)C(C)C)c1cnccc1C(F)(F)F (centres unmarked) [Compound 982]	–	–
4.26^[a]	CCOC(=O)C(C#N)=C(NC(C)C(C)C)c1cc(Cl)cc(Cl)n1 (centres unmarked) [Compound 983]	–	–
